Data published in patent US8110228B2, “Composition for treatment of menopause” (Bionovo, Inc., priority 2005, dated 2012).
Marks after values point to notes of the source that are not given here.

Key:
breast cancer graft = breast cancer graft (xenograft) growth, control vs DES vs MF101; format: in vivo
From the text: (§1) In a similar experiment, the effect of MF101 on breast cancer cells was compared to that of diethylstilbestrol (DES). […] FIGS. 3G and 3H show the effect of control, DES and MF101 on a breast cancer graft mass (FIG. 3G) and a uterine horn mass (FIG. 3H).

uterine horn = uterine horn mass, control vs DES vs MF101; format: in vivo; details: FIG. 3H
From the text: as §1

U2OS-ERα cells [1] = assay: Affymetrix U95Av2 gene expression microarray in U2OS-ERα cells; format: cell-based, human; details: for number of genes Activated, α / number of genes Repressed, α: 10 nM E2, 1 μM raloxifene or 1 μM tamoxifen
Method: (§2) To identify genes regulated by ERα and/or ERβ, the U2OS-ERα and U2OS-ERβ cell lines were treated with doxycycline for 18 h in the absence or presence of 10 nM E2. Total RNA was used to prepare cRNA for hybridization with the human U95Av2 Affymetrix microarrays, which contain 12,600 known genes. Six sets of comparative expression data of untreated vs. each treated group were used to determine the genes regulated in ERα or ERβ cells.
(§3) Microarray data obtained from human Affymetrix U95Av2 gene chips from untreated vs. ligand-treated samples were analyzed using the Affymetrix Microarray Suite Version 5.0. Candidate genes displaying a statistically significant (p<0.05) increase or decrease signal changes relative to controls in at least three experiments were further selected by a ±0.8 signal log ratio mean cut-off. […] Fold-changes in the U2OS-ERα and U2OS-ERβ samples (in parentheses) were calculated relative to the untreated samples.

U2OS-ERβ cells [2] = assay: Affymetrix U95Av2 gene expression microarray in U2OS-ERβ cells; format: cell-based, human
Method: as §2, §3

[3] = tested on: U2OS-ERα and U2OS-ERβ cell lines; assay: Affymetrix U95Av2 microarray, genes regulated across U2OS-ERα and U2OS-ERβ cell lines; format: cell-based, human; details: for number of genes Activated, α + β / number of genes Repressed, α + β: in both cell lines; for number of genes Activated, α + β / number of genes Repressed, α + β / total genes regulated in U2OSα and U2OSβ cell lines: 18 h; for total genes regulated in U2OSα and U2OSβ cell lines: p<0.05, 10 nM E2, 1 μM raloxifene or 1 μM tamoxifen
Method: as §2, §3

human ERβ = target: T1, human ERβ (Homo sapiens, UniProt Q92731); assay: ERE-tk-Luc reporter activation in U2OS osteosarcoma cells transfected with ERβ; format: cell-based; details: FIG. 1B
T1 construct: expressed in transfected cells; host or cells: U2OS osteosarcoma cells, transient transfection

U2OS-ERα cells [4] = details: relative to untreated, 18 h
U2OS-ERβ cells [5] = details: relative to untreated, 18 h
[6] = tested on: U2OS-ERα and U2OS-ERβ cell lines; assay: Affymetrix U95Av2 microarray, genes regulated across U2OS-ERα and U2OS-ERβ cell lines; format: cell-based, human; details: for number of common genes with opposite expression patterns in ERα cells compared to ERβ cells (*): α + β, 1 μM SERM, 18 h
[7] = only in U2OS-ERα cells, percent of all regulated genes

T1 sequence (Q92731 whole entry): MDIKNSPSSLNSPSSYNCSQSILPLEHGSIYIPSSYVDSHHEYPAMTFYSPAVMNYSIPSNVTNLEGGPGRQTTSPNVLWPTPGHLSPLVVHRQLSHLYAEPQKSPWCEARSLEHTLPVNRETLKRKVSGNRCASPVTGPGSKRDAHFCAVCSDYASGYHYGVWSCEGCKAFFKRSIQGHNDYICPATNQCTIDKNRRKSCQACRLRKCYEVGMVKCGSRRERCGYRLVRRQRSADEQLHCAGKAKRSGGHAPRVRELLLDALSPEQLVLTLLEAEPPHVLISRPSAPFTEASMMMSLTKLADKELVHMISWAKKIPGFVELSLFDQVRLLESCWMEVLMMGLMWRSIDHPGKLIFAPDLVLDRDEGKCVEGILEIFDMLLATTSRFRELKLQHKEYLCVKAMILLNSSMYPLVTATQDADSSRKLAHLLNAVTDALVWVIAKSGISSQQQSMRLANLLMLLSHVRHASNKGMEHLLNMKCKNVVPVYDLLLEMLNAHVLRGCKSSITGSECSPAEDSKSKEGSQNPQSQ

Compound | number of genes Activated, α (U2OS-ERα cells [1]; only in U2OS-ERα cells, 18 h) | number of genes Repressed, α (U2OS-ERα cells [1]; only in U2OS-ERα cells, 18 h) | number of genes Activated, β (U2OS-ERβ cells [2]; only in U2OS-ERβ cells, 18 h) | number of genes Repressed, β (U2OS-ERβ cells [2]; only in U2OS-ERβ cells, 18 h) | number of genes Activated, α + β [3] | number of genes Repressed, α + β [3] | total genes regulated in U2OSα and U2OSβ cell lines [3] | number of common genes with opposite expression patterns in ERα cells compared to ERβ cells (*) [6] | other results
CC/C(=C(/CC)c1ccc(O)cc1)c1ccc(O)cc1 [DES, diethylstilbestrol] | – | – | – | – | – | – | – | – | growth of xenograft (breast cancer graft mass) (breast cancer graft; FIG. 3G): substantial increase in xenograft mass; proliferation of breast cancer cells (breast cancer graft; FIGS. 3D-3F): proliferation-stimulating effect; growth of uterine horn mass (uterine horn): substantial increase in uterine horn growth
C[C@]12CC[C@@H]3c4ccc(O)cc4CC[C@H]3[C@@H]1CC[C@@H]2O [estradiol] | 33 | 32 | 87 | 38 | 34 | 4 | Estradiol: 228 genes regulated in U2OSα and U2OSβ cell lines | – | genes regulated only in the U2OS-ERα cells (U2OS-ERα cells [1]; 10 nM E2): 65 genes; genes regulated only in the U2OS-ERβ cells (U2OS-ERβ cells [2]; 10 nM E2): 125 genes; percentage of genes regulated by both ERα and ERβ ([3]; 10 nM E2, 38 of the 228): 17%; genes regulated by both ERα and ERβ ([3]; 10 nM E2, of the 228): 38 genes; total genes regulated in U2OSα and U2OSβ cell lines ([3]; listed as E2): 228 genes
O=C(c1ccc(OCCN2CCCCC2)cc1)c1c(-c2ccc(O)cc2)sc2cc(O)ccc12 [raloxifene] | 10 | 10 | 52 | 101 | – | – | Raloxifene: 190 genes regulated in U2OSα and U2OSβ cell lines | 17* | blockade of the activation of ERE-tk-Luc by MF101 (human ERβ): blocked; Mean signal log ratio ± S.E., NKG2C (α) (U2OS-ERα cells [1]; U2OS-ERα, 18 h): 2.40 ± 0.82; relative percentage of genes Activated, α (U2OS-ERα cells [1]; [7]): (5.3%); relative percentage of genes Repressed, α (U2OS-ERα cells [1]; [7]): (5.3%); Mean signal log ratio ± S.E., NKG2C (β) (U2OS-ERβ cells [2]; U2OS-ERβ, 18 h): −5.20 ± 0.08; relative percentage of genes Activated, β (U2OS-ERβ cells [2]; only in U2OS-ERβ cells): (27.4%); relative percentage of genes Repressed, β (U2OS-ERβ cells [2]; only in U2OS-ERβ cells): (53.2%); relative percentage of common genes with opposite expression patterns (*) ([3]; α + β): (8.9%); Fold-change by real-time PCR, NKG2C (α) (U2OS-ERα cells [4]): 7.54 fold; Fold-change by real-time PCR, NKG2C (β) (U2OS-ERβ cells [5]): 0.36 fold
CC/C(=C(\c1ccccc1)c1ccc(OCCN(C)C)cc1)c1ccccc1 [tamoxifen] | 21 | 38 | 26 | 129 | 1 | 9 | Tamoxifen: 236 genes regulated in U2OSα and U2OSβ cell lines | 12* | percentage of genes regulated by tamoxifen that were also regulated by raloxifene [6]: 27%
